Columns and labels:
Format in all cases: in vivo
Mus musculus = assay: Acute lethality and toxicity, oral administration (gastric probe); parameters: key to Toxic symptomatology Type: NN = no symptomatology; D = depression; conditions: for % mortality at following times after administration 24 h / % mortality at following times after administration 7 days / Toxic symptomatology Type / Toxic symptomatology Latency: oral; for LD50 (mg/kg with reliability limits) 7 days after treatment: po, probit method
Description: (§1) Unless otherwise specified, the research was carried out using: a) Mg-UCD capsules as such; b) the powdered contents of Mg-UCD capsules; CDCA (chenodeoxycholic acid) and UDCA (ursodeoxycholic acid) as pure substance which in all cases was partly dissolved and partly suspended under warm conditions (T = 30°C) in 10% gum arabic mucilage (so as to administer 10-40 ml of liquid per kg orally). In certain cases, namely in the experiments involving parenteral administration, the active principle of Mg-UCD, the chenodeoxycholic acid and ursodeoxycholic acid were dissolved in distilled water of slightly alkaline pH (5-10 ml/kg).
(§2) The generally acute lethality, toxicity and tolerability were determined by oral administration of the Mg-UCD (by gastric probe) in the Mus musculus, rat and dog. Animals of both sexes were used, none of which were pregnant. They were fasted for about 12 hours before treatment (but allowing them free access to water). The investigations were carried out using the Mg-UCD in powder form. Comparative investigations were carried out on the rat and Mus musculus using the active principle by endoperitoneal administration, and chenodeoxycholic acid and ursodeoxycholic acid by oral administration (using a gastric probe). Each dose was administered to 20 rats or Mus musculus (10 male and 10 female) and to eight dogs (4 male and 4 female). The animals were observed attentively during the 7 days following administration, and any lethality, toxic symptoms, disturbances, functional variations determinable with the eye, behaviour etc. were noted.
(§3) The LD50 was determined 7 days after administration using the probit method.

rat = assay: as above; parameters: key to Toxic symptomatology Type: NN = no symptomatology; D = depression; conditions: for % mortality at following times after administration 24 h / % mortality at following times after administration 7 days / Toxic symptomatology Type / Toxic symptomatology Latency: oral; for LD50 (mg/kg with reliability limits) 7 days after treatment: po, probit method
Description: as §1, §2, §3

hampsters [1] = assay: Action on the formation of cholesterol calculi in the gall-bladder (cholesterol-enriched diet, 80 days); conditions: for % animals with calculi / % animals with crystals: cholesterol-enriched diet
Description: (§4) The investigations were carried out on hampsters (of female sex, but excluding those in a state of pregnancy) having an initial weight of 75-90 g. They were treated for 80 days with oral administration (by gastric probe) of MG-UCD (10-20 mg/kg/day), chenodeoxycholic acid (10-20 mg/kg/day) or ursodeoxycholic acid (10-20 mg/kg/day) (Tables 4 and 5). The animals were maintained for 80 consecutive days on a Nossan feed diet for rats, enriched with cholesterol (2 mg/g of food).
(§5) Each experimental group consisted of 10 units. After 80 days, the animals were narcotised with ethyl ether, and the bile was withdrawn, together with the calculi and crystals from the gall-bladder as described by Pearlman and coll. in Gastroenterology 77, 634 (1979).

hampsters [2] = assay: Bile lipid and bile acid contents of the bile (cholesterol-enriched diet, 80 days)
Description: as §4, §5
The bile acid, phospholipid, cholesterol, cholic acid, chenodeoxycholic acid, ursodeoxycholic acid, DCA (deoxycholic acid) and LCA (lithocholic acid) contents were evaluated in the bile by the methods described by Pearlman and coll. (see above).

patients = assay: Controlled study in comparison with the free acids; tolerability in patients
[3] = M. musculus F, 250 mg/kg (60 Dts/kg)
[4] = M. musculus F, 2500 mg/kg (600 Dts/kg)
[5] = M. musculus F, 5000 mg/kg (1200 Dts/kg)
[6] = M. musculus F, 10000 mg/kg (2400 Dts/kg)
[7] = M. musculus M, 250 mg/kg (60 Dts/kg)
[8] = M. musculus M, 2500 mg/kg (600 Dts/kg)
[9] = M. musculus M, 5000 mg/kg (1200 Dts/kg)
[10] = M. musculus M, 10000 mg/kg (2400 Dts/kg)
[11] = Rat F, 5000 mg/kg (1200 Dts/kg)
[12] = Rat F, 10000 mg/kg (2400 Dts/kg)
[13] = Rat M, 5000 mg/kg (1200 Dts/kg)
[14] = Rat M, 10000 mg/kg (2400 Dts/kg)
[15] = female hampsters, 10 mg/kg/day oral for 80 days
[16] = female hampsters, 20 mg/kg/day oral for 80 days

“double magnesium salt of chenodeoxycholic acid and ursodeoxycholic acid [Mg-UCD]” was tested, and the “% mortality at following times after administration 24 h” value (“% mortality … after administration 24 h” below) (Mus musculus; [3]) was 0%, the “% mortality at following times after administration 7 days” value (Mus musculus; [3]) was 0% and the “Toxic symptomatology Type” value (Mus musculus; [3]) was “NN”. For the same substance, the “% mortality … after administration 24 h” value (Mus musculus; [4]) was 0%, the “% mortality at following times after administration 7 days” value (Mus musculus; [4]) was 0% and the “Toxic symptomatology Latency” value (Mus musculus; [4]) was 5-10 min. For the same substance, the “Toxic symptomatology Type” value (Mus musculus; [4]) was “D”, the “% mortality … after administration 24 h” value (Mus musculus; [5]) was 0% and the “% mortality at following times after administration 7 days” value (Mus musculus; [5]) was 0%. The “Toxic symptomatology Latency” value (Mus musculus; [5]) was 5-10 min, the “Toxic symptomatology Type” value (Mus musculus; [5]) was “D” and the “% mortality … after administration 24 h” value (Mus musculus; [6]) was 10%. The “% mortality at following times after administration 7 days” value (Mus musculus; [6]) was 10%, the “Toxic symptomatology Latency” value (Mus musculus; [6]) was 5-10 min and the “Toxic symptomatology Type” value (Mus musculus; [6]) was “D”. For the same substance, the “LD50 (mg/kg with reliability limits) 7 days after treatment” value (Mus musculus; M. musculus F) was 14011 (10884-18033) mg/kg, the “% mortality … after administration 24 h” value (Mus musculus; [7]) was 0% and the “% mortality at following times after administration 7 days” value (Mus musculus; [7]) was 0%. The “Toxic symptomatology Type” value (Mus musculus; [7]) was “NN”, the “% mortality … after administration 24 h” value (Mus musculus; [8]) was 0% and the “% mortality at following times after administration 7 days” value (Mus musculus; [8]) was 0%. For the same substance, the “Toxic symptomatology Latency” value (Mus musculus; [8]) was 5-10 min, the “Toxic symptomatology Type” value (Mus musculus; [8]) was “D” and the “% mortality … after administration 24 h” value (Mus musculus; [9]) was 0%. The “% mortality at following times after administration 7 days” value (Mus musculus; [9]) was 0%, the “Toxic symptomatology Latency” value (Mus musculus; [9]) was 5-10 min and the “Toxic symptomatology Type” value (Mus musculus; [9]) was “D”. The “% mortality … after administration 24 h” value (Mus musculus; [10]) was 10%, the “% mortality at following times after administration 7 days” value (Mus musculus; [10]) was 10% and the “Toxic symptomatology Latency” value (Mus musculus; [10]) was 5-10 min. For the same substance, the “Toxic symptomatology Type” value (Mus musculus; [10]) was “D”, the “LD50 (mg/kg with reliability limits) 7 days after treatment” value (Mus musculus; M. musculus M) was 13100 (10515-16319) mg/kg and the “% mortality … after administration 24 h” value (rat; Rat F, 250 mg/kg (60 Dts/kg)) was 0%. For the same substance, the “% mortality at following times after administration 7 days” value (rat; Rat F, 250 mg/kg (60 Dts/kg)) was 0%, the “Toxic symptomatology Type” value (rat; Rat F, 250 mg/kg (60 Dts/kg)) was “NN” and the “% mortality … after administration 24 h” value (rat; Rat F, 2500 mg/kg (600 Dts/kg)) was 0%. The “% mortality at following times after administration 7 days” value (rat; Rat F, 2500 mg/kg (600 Dts/kg)) was 0%, the “Toxic symptomatology Latency” value (rat; Rat F, 2500 mg/kg (600 Dts/kg)) was 5-10 min and the “Toxic symptomatology Type” value (rat; Rat F, 2500 mg/kg (600 Dts/kg)) was “D”. For the same substance, the “% mortality … after administration 24 h” value (rat; [11]) was 0%, the “% mortality at following times after administration 7 days” value (rat; [11]) was 0% and the “Toxic symptomatology Latency” value (rat; [11]) was 5-10 min. For the same substance, the “Toxic symptomatology Type” value (rat; [11]) was “D”, the “% mortality … after administration 24 h” value (rat; [12]) was 10% and the “% mortality at following times after administration 7 days” value (rat; [12]) was 10%. The “Toxic symptomatology Latency” value (rat; [12]) was 5-10 min, the “Toxic symptomatology Type” value (rat; [12]) was “D” and the “LD50 (mg/kg with reliability limits) 7 days after treatment” value (rat; Rat F) was 13100 (10515-16319) mg/kg. For the same substance, the “% mortality … after administration 24 h” value (rat; Rat M, 250 mg/kg (60 Dts/kg)) was 0%, the “% mortality at following times after administration 7 days” value (rat; Rat M, 250 mg/kg (60 Dts/kg)) was 0% and the “Toxic symptomatology Type” value (rat; Rat M, 250 mg/kg (60 Dts/kg)) was “NN”. The “% mortality … after administration 24 h” value (rat; Rat M, 2500 mg/kg (600 Dts/kg)) was 0%, the “% mortality at following times after administration 7 days” value (rat; Rat M, 2500 mg/kg (600 Dts/kg)) was 0% and the “Toxic symptomatology Latency” value (rat; Rat M, 2500 mg/kg (600 Dts/kg)) was 5-10 min. The “Toxic symptomatology Type” value (rat; Rat M, 2500 mg/kg (600 Dts/kg)) was “D”, the “% mortality … after administration 24 h” value (rat; [13]) was 0% and the “% mortality at following times after administration 7 days” value (rat; [13]) was 0%. For the same substance, the “Toxic symptomatology Latency” value (rat; [13]) was 5-10 min, the “Toxic symptomatology Type” value (rat; [13]) was “D” and the “% mortality … after administration 24 h” value (rat; [14]) was 10%. The “% mortality at following times after administration 7 days” value (rat; [14]) was 10%, the “Toxic symptomatology Latency” value (rat; [14]) was 5-10 min and the “Toxic symptomatology Type” value (rat; [14]) was “D”. The “LD50 (mg/kg with reliability limits) 7 days after treatment” value (rat; Rat M) was 14011(10884-18033) mg/kg, the “% animals with calculi” value (hampsters [1]; [15]) was 20% and the “% animals with crystals” value (hampsters [1]; [15]) was 20%. The “% animals with calculi” value (hampsters [1]; [16]) was 0%, the “% animals with crystals” value (hampsters [1]; [16]) was 0% and the “Body weight (g ± s.e.) after following days 80” value (hampsters [1]; female hampsters, day 80, oral, 10 mg/kg/day) was 152 ± 8 g. The “appearance of cholesterol calculi and crystals in the gall-bladder” value (hampsters [1]; hampster, oral, more intense than chenodeoxycholic acid or ursodeoxycholic acid) was “hinders the appearance of cholesterol calculi and crystals in the gall-bladder in a dose-dependent manner”, the “Bile acids (expressed as molar % ± s.e.) Cheno-deoxycholic acid” value (hampsters [2]; 10 mg/kg/day oral for 80 days) was 28.6 ± 2.9 molar % and the “Bile acids (expressed as molar % ± s.e.) Cholic acid” value (hampsters [2]; 10 mg/kg/day oral for 80 days) was 18.1 ± 2.6 molar %. For the same substance, the “Bile acids (expressed as molar % ± s.e.) DCA” value (hampsters [2]; 10 mg/kg/day oral for 80 days) was 13.4 ± 0.5 molar %, the “Bile acids (expressed as molar % ± s.e.) LCA” value (hampsters [2]; 10 mg/kg/day oral for 80 days) was 2.4 ± 0.1 molar % and the “Bile acids (expressed as molar % ± s.e.) Urso-deoxycholic acid” value (hampsters [2]; 10 mg/kg/day oral for 80 days) was 21.7 ± 2.9 molar %. The “Bile lipids (expressed as molar % ± s.e.) Bile acids” value (hampsters [2]; 10 mg/kg/day oral for 80 days) was 78.6 ± 5.3 molar %, the “Bile lipids (expressed as molar % ± s.e.) Cholesterol” value (hampsters [2]; 10 mg/kg/day oral for 80 days) was 6.9 ± 0.4 molar % and the “Bile lipids (expressed as molar % ± s.e.) Phospho-lipids” value (hampsters [2]; 10 mg/kg/day oral for 80 days) was 15.6 ± 1.7 molar %. The “Bile acids (expressed as molar % ± s.e.) Cheno-deoxycholic acid” value (hampsters [2]; 20 mg/kg/day oral for 80 days) was 24.4 ± 3.1 molar %, the “Bile acids (expressed as molar % ± s.e.) Cholic acid” value (hampsters [2]; 20 mg/kg/day oral for 80 days) was 11.4 ± 1.7 molar % and the “Bile acids (expressed as molar % ± s.e.) DCA” value (hampsters [2]; 20 mg/kg/day oral for 80 days) was 10.5 ± 0.4 molar %. For the same substance, the “Bile acids (expressed as molar % ± s.e.) LCA” value (hampsters [2]; 20 mg/kg/day oral for 80 days) was 3.6 ± 0.2 molar %, the “Bile acids (expressed as molar % ± s.e.) Urso-deoxycholic acid” value (hampsters [2]; 20 mg/kg/day oral for 80 days) was 54.9 ± 3.6 molar % and the “Bile lipids (expressed as molar % ± s.e.) Bile acids” value (hampsters [2]; 20 mg/kg/day oral for 80 days) was 80.7 ± 4.7 molar %. For the same substance, the “Bile lipids (expressed as molar % ± s.e.) Cholesterol” value (hampsters [2]; 20 mg/kg/day oral for 80 days) was 4.7 ± 0.3 molar %, the “Bile lipids (expressed as molar % ± s.e.) Phospho-lipids” value (hampsters [2]; 20 mg/kg/day oral for 80 days) was 14.7 ± 1.9 molar % and the anti-dislipidemic effect (patients; in particular hypotriglyceridemic, at much smaller doses than the individual bile acids) was “modest anti-dislipidemic effect”. The side effects (patients; patients) was “No significant side effects” and the “effects compared with the free acids” value (patients; relatively small doses of the salt against double doses of each acid administered separately) was “greater effects”.

Source: patent publication EP0092073A1, “Magnesium salt of chenodeoxycholic acid and ursodeoxycholic acid, the process for its preparation, and therapeutic compositions which contain it as active principle” (SCHWARZ ITALIA S.p.A., priority 1982, dated 1983)
